Laboratory results taken from US20120171123A1, “USES AND COMPOSITIONS FOR TREATMENT OF RHEUMATOID ARTHRITIS” (priority 2006, published 2012).
Marks after values point to notes of the source that are not given here.

System: MTX-naïve adult patients with active, early RA (<3 years)
Assay: Study J: radiographic progression (TSS, joint erosion, joint space narrowing)
Type: in vivo, human
From the text: The co-primary endpoints, comparing MTX alone with the combination at 1 year, were the ACR50 response (using non-responder imputation), and inhibition of radiographic progression, as measured by change in total Sharp score (TSS). In this study, the term “Major Clinical Response” (MCR) meant a continuous ACR70 response for 6 or more consecutive months.
At 1 and 2 years, the American College of Rheumatology (ACR) responses (ACR20, ACR50, and ACR70), the Disease Activity Score 28 (DAS28), and the change (Δ) in Total Sharp Score (TSS) were determined for all patients. Results were analyzed for the intention-to-treat (ITT) population using imputation for missing data. Clinical remission was defined as DAS28<2.6. The mean ΔTSS values at 1 year and 2 years (N=791) were determined for patients in each ACR response category (ACR20/50/70) and for patients with DAS28<2.6
Radiographic progression was measured by Total Sharp Score (TSS) at baseline, and 1 and 2 years in the intention to treat population (ITT) using imputation for missing data. In this analysis, patients were divided into 1 of 2 categories by disease duration at baseline: <6 months (Group 1) or 6 months to 3 years (Group 2). Mean changes in TSS were reported for both groups by each of the 3 treatment arms from baseline to Year 1 and from Year 1 to Year 2.
Radiographic progression was assessed by mean change from baseline in Total Sharp Score (TSS) and stratified into those with (ΔTSS>0.5) and without (Δ≦TSS 0.5). Patients were categorized as either having radiographic progression at 1 year (ΔTSS>0.5) or not (Δ≦TSS 0.5). A logistic regression model was used to identify predictors of radiographic disease progression by testing several baseline characteristics, including age, disease duration, RF status, TJC, SJC, joint erosions, and CRP. For analyses of CRP, patients were categorized as normal (CRP≦0.8 mg/dL) or abnormal (CRP>0.8 mg/dL).
Mean change from baseline in Total Sharp Score (TSS) was measured at 6 months, 1 year, and 2 years in the intention-to-treat (ITT) population using imputation for missing data. Patients were classified as having radiographic progression (mean change in TSS>0.5) or without radiographic progression (ΔTSS≦0.5). Patients with inadequate data were excluded from this analysis.
Patients in the Ada+MTX and the MTX arms were classified according to level of clinical response (non-responder (<ACR20), ACR20, ACR50, or ACR70) and radiographic progression (Yes or No (ΔTSS≦0.5)). The ΔTSS was analyzed overall, and for ACR subgroups. This included determination of mean ΔTSS and probability plots.
Study J was a 2-year, double-blind, active comparator-controlled, Phase III study. […] For each patient, radiographs of hands and feet were taken at baseline, 6 months, 1 year and 2 years and evaluated for joint erosions (JE) and joint space narrowing (JSN) by 2 blinded radiologists. Changes from baseline in the modified total Sharp score (TSS, 0-398) were calculated for patients in each treatment arm. Cumulative probability plots were generated by estimating the probability of exceeding a given change in TSS. For each treatment, we calculated the percentages of patients whose ΔTSS exceeded specified thresholds, and the probability of having a given ΔTSS (using cumulative probability plots). For each of 4 cumulative probability ranges, 0-10%, 10-50%, 50-90% and 90-100% (higher numbered ranges=greater ΔTSS), mean ΔTSS values were calculated. In previous reports, Study J radiographic analyses employed linear imputation. In the present analysis, only observed data were employed, with no imputation.

[1] = disease duration 6 months-3 years (n=333)

adalimumab: human anti-TNF mAb (HUMIRA, Abbott Laboratories), described in U.S. Pat. No. 6,090,382 as D2E7
Mean change in TSS (1 year, ACR20 responders): 2.3 | mean change in JE score (1 year, ACR20 responders): 1.0 | mean change in JSN (1 year, ACR20 responders): 1.3 | Mean change in TSS (1 year, ACR50 responders): 1.7 | mean change in JE score (1 year, ACR50 responders): 0.8 | mean change in JSN (1 year, ACR50 responders): 0.9 | Mean change in TSS (1 year, ACR70 responders): 1.1 | mean change in JE score (1 year, ACR70 responders): 0.5 | mean change in JSN (1 year, ACR70 responders): 0.6 | patients with no radiographic progression (1 year, abnormal baseline CRP normalized at 1 year): 53% | patients with no radiographic progression (1 year, elevated CRP at both baseline and 1 year): 32% | Mean change in TSS (1 year, patients with DAS28<2.6): −0.1 | % of patients with >4 change TSS (2 years): 30.7% | % of patients with >10 change TSS (2 years): 17.5% | % of patients with >20 change TSS (2 years): 5.4% | patients with no radiographic progression (change in TSS ≦0.5) (2 years): 45% | mean change in JE score (2 years, ACR20 responders): 2.3 | mean change in JSN (2 years, ACR20 responders): 2.2 | mean change in TSS from baseline (2 years, ACR20 responders): 4.5 | mean change in JE score (2 years, ACR50 responders): 1.5 | mean change in JSN (2 years, ACR50 responders): 1.9 | mean change in TSS from baseline (2 years, ACR50 responders): 3.4 | mean change in JE score (2 years, ACR70 responders): 1.6 | mean change in JSN (2 years, ACR70 responders): 1.9 | mean change in TSS from baseline (2 years, ACR70 responders): 3.5 | Mean change in TSS (2 years, patients with DAS28<2.6): 1.3 | Mean change in TSS (2 years, all points (0-100), observed data): 4.7 | Mean change in TSS (2 years, cumulative probability range 0-10): −2.8 | Mean change in TSS (2 years, cumulative probability range 50-90): 4.7^† | Mean change in TSS (2 years, cumulative probability range 90-100): 28.9 | % of patients with >4 change TSS (6 months): 0.5% | % of patients with >10 change TSS (6 months): 6.5% | % of patients with >20 change TSS (6 months): 10.6% | patients with no radiographic progression (6 months): 63% | Mean change in TSS (6 months, all points (0-100), observed data): 2.1* | Mean change in TSS (6 months, cumulative probability range 0-10): −3.4 | Mean change in TSS (6 months, cumulative probability range 90-100): 13.6 | Patients with No Radiographic Progression at 1 Year (CRP (BL and Year 1) Abnormal to Normal): 53%* | Patients with No Radiographic Progression at 1 Year (CRP (BL and Year 1) Always Normal): 91% | Patients with No Radiographic Progression at 1 Year (CRP (BL and Year 1) Never Normal): 32% | No Progression at Month 6, % (Study J): 63% | No Progression at Month 6, patients/total (Study J): 172/271 | No Progression at Month 6 and Year 2, % (Study J): 63% | No Progression at Month 6 and Year 2, patients/Month-6 non-progressors (Study J): 109/172 | Yr-2 Non-P, % (among Mo-6 Non-Progressors): 63% | Yr-2 Non-P, number of patients (among Mo-6 Non-Progressors): 109 | Yr-2 Prog, % (among Mo-6 Non-Progressors): 37% | Yr-2 Prog, number of patients (among Mo-6 Non-Progressors): 63 | Yr-2 Non-P, % (among Mo-6 Progressors): 13 (13%) | Yr-2 Non-P, number of patients (among Mo-6 Progressors): 13 (13%) | Yr-2 Prog, % (among Mo-6 Progressors): 87% | Yr-2 Prog, number of patients (among Mo-6 Progressors): 86 | mean change TSS during year 1 [1]: 2.4 sharp score units | mean change TSS during year 2 [1]: 3.2 sharp score units | mean change TSS during year 1 (disease duration <6 months): 3.4 sharp score units | mean change TSS during year 2 (disease duration <6 months): 2.1 sharp score units | Mo-6 Non-Progressors, % of arm (no progression = ΔTSS≦0.5): 63% | Mo-6 Non-Progressors, number of patients (no progression = ΔTSS≦0.5): 172 | patients with no progression at year 2 (no progression at month 6): 63% | Mo-6 Progressors, % of arm (progression = ΔTSS>0.5): 37% | Mo-6 Progressors, number of patients (progression = ΔTSS>0.5): 99 | patients with no progression at year 2 (progression at month 6): 13% | mean change from baseline in TSS (week 26, ITT with imputation): 2.1**
